Reference: patent US7700648B2, “Ester compound and its use” (Sumitomo Chemical Company Limited, priority 2004, dated 2010)

Tested on: common mosquitoes (Culex pipiens pallens)
Test: Knock-down test on common mosquitoes by oil solution spray in a cubic chamber
Assay type: in vivo
Conditions: 0.7 ml of 0.025% oil solution sprayed in 70 cm cubic chamber; ten female Culex pipiens pallens; counted for 10 minutes
From the text: A solution of 0.025 part of the present compound (1) dissolved with 10 parts of dichloromethane was mixed with 89.975 parts of deodorized kerosene to give a 0.025% oil solution.
Ten female common mosquitoes (Culex pipiens pallens) were left in a cubic chamber (70 cm at side). Seven-tenths (0.7) ml of the 0.025% oil solution of the present compound (1) was sprayed with a spray gun at a pressure of 8.8×10^4 Pa from a small window on the side of the chamber. Then, the number of the knocked-down insects was counted at times for 10 minutes. The time (KT50) for knocking down half of the tested insects was calculated from the result.
For the comparison, 5-benzyl-3-furylmethyl 1R-trans-2,2-dimethyl-3-((E)-2-cyano-3-ethoxy-3-oxo-1-propenyl)cyclopropanecarboxylate (hereinafter, referred to as the comparison compound) was also subjected to the above mentioned test. The test was done twice for one compound.

## CCOC(=O)/C(C#N)=C/[C@@H]1[C@@H](C(=O)OCc2coc(Cc3ccccc3)c2)C1(C)C (relative stereo) [The comparison compound, 5-benzyl-3-furylmethyl 1R-trans-2,2-dimethyl-3-((E)-2-cyano-3-ethoxy-3-oxo-1-propenyl)cyclopropanecarboxylate]
  KT50 (time for knocking down half of the tested insects): 6.1 min

## COC(=O)/C(C#N)=C/C1C(C(=O)OCc2coc(Cc3ccccc3)c2)C1(C)C (stereo not drawn) [The present compound (1), 5-benzyl-3-furylmethyl 1R-trans-2,2-dimethyl-3-((E)-2-cyano-3-methoxy-3-oxo-1-propenyl)cyclopropan ecarboxylate]
  KT50 (time for knocking down half of the tested insects): 0.7 min
